Reference: publication PMC8331687 (ACS chemical biology, 2020)

Molecular target: T1, ObiH (Pseudomonas fluorescens, UniProt A0A1X9LWZ7)
T1 sequence (A0A1X9LWZ7 1-440): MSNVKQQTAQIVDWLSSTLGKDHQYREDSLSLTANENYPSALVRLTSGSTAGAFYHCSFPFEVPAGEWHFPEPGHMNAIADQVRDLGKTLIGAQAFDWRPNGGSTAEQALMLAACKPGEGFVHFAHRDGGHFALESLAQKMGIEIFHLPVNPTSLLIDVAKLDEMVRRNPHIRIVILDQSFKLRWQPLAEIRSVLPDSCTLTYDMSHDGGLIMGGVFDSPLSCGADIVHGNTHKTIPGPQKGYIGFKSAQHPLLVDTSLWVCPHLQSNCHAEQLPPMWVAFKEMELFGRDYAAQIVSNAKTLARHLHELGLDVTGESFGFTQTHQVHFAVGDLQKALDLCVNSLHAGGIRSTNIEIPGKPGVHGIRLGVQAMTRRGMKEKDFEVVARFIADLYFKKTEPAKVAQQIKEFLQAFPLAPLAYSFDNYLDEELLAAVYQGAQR
Assay: UV-vis titration of quinonoid at […] nm
Assay type: binding

CC=O [acetaldehyde] was tested. Which Kd did it give?
The Kd was 430 ± 15 µM.
